What was measured:
[1] = Stability of Racecadotril in Buffer Solutions; format: physicochemical
Procedure: For comparative purposes, the stability of racecadotril was analyzed when solubilized in pH 4.5 Acetate buffer and pH 4.5 Citrate buffer (Table 3). • 1. Pipet 1 mL of Racecadotril solution into a 100 mL volumetric flask (V.F.) • 2. Dilute to volume with the same buffer used in the solution preparation. • 3. […] Parameters may be modified to optimize chromatography. • The assay of Racecadotril is determined by using the external standard injected. The degradation products levels are determined by % peak area relative to the Racecadotril peak. [table] [table] Mobil Phase A: Phosphate buffer, pH 2.5 (Buffer prep: dissolve 1 g of potassium dihydrogen phosphate in water, adjust to pH 2.5 with phosphoric acid, dilute to 1000 mL with water) Mobil Phase B: 100% Acetonitrile

[2] = Solubility of racecadotril in water, buffer and Beta-HPCD (statements); format: physicochemical
[3] = cited from earlier work

- Racecadotril in pH 4.5 Acetate Buffer at 40° C. (% Racecadotril) ([1]; 1 Week): 96.7%
- Racecadotril in pH 4.5 Citrate Buffer at 40° C. (% Racecadotril) ([1]; 1 Week): 95.3%
- Racecadotril in pH 4.5 Acetate Buffer at 40° C. (% Racecadotril) ([1]; 2 Weeks): 93.3%
- Racecadotril in pH 4.5 Citrate Buffer at 40° C. (% Racecadotril) ([1]; 2 Weeks): 91.2%
- Racecadotril in pH 4.5 Acetate Buffer at 40° C. (% Racecadotril) ([1]; 3 Weeks): 91.5%
- Racecadotril in pH 4.5 Citrate Buffer at 40° C. (% Racecadotril) ([1]; 3 Weeks): 89.0%
- Racecadotril in pH 4.5 Acetate Buffer at 40° C. (% Racecadotril) ([1]; 4 Weeks): 88.0%
- Racecadotril in pH 4.5 Citrate Buffer at 40° C. (% Racecadotril) ([1]; 4 Weeks): 85.4%
- Racecadotril in pH 4.5 Acetate Buffer at 40° C. (% Racecadotril) ([1]; 12 Hours): 99.69%
- Racecadotril in pH 4.5 Citrate Buffer at 40° C. (% Racecadotril) ([1]; 12 Hours): 99.63%
- stability in buffer compared with water ([1]; 40° C. and 4 weeks): more stable in a buffer than in water
- Racecadotril in pH 4.5 Acetate Buffer at 40° C. (% Racecadotril) ([1]; Initial): 99.86%
- Racecadotril in pH 4.5 Citrate Buffer at 40° C. (% Racecadotril) ([1]; Initial): 99.74%
- solubility in buffer compared with water [2]: more soluble in buffer than in water
- solubility utilizing the Beta-HPCD compared with buffers alone [2]: higher solubility
Compound: CC(=O)SCC(Cc1ccccc1)C(=O)NCC(=O)OCc1ccccc1 (racemic) [Racecadotril]
- water solubility [3]: low water solubility
